From patent publication US4857650A, “Novel renin inhibitory amino acid derivatives” (Kissei Pharmaceutical Co., Ltd., priority 1985, dated 1989) come the findings set out here.

For assay [1], the target named is T1, human renin (Homo sapiens, UniProt P00797).
T1 sequence (P00797 67-406): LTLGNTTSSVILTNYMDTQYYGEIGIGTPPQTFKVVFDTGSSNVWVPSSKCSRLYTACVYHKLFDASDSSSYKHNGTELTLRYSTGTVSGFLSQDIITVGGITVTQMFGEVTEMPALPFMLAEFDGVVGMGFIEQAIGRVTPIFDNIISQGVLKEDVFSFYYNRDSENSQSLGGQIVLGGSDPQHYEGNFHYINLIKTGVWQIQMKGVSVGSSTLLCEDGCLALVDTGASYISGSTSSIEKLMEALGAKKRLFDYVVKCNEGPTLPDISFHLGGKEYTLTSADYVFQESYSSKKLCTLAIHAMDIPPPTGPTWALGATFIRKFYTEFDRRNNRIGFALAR
Kind of assay: Human renin-sheep renin substrate reaction system in vitro. It is filed as biochemical. Particulars: pH 7.4, 15 minutes at 37° C., read-out: IC50 (molar concentration). How it is done: Human resin-sheep resin substrate reaction system in vitro To a mixture containing 200 μl of a 125 mM pyrophosphate buffer (pH 7.4), 25 μl of a 20 mM aqueous solution of […] as an angiotensin converting enzyme inhibitor, 50 μl of semipurified sheep renin substrate ([…]), 50 μl of dimethyl sulfoxide solution of an amino acid derivative of the present invention (or 50 μl of dimethyl sulfoxide as a control) and 150 μl of deionized water was added 25 μl of purified human renin (20-30 ng angiotensin I/ml/hr). The mixture was incubated for 15 minutes on a water bath at 37° C., and the reaction mixture was allowed to stand for 5 minutes on a water bath at 100° C. to stop the reaction. After cooling, 200 μl of the solution were taken up and the amount of angiotensin I produced by the addition of renin was determined by radioimmunoassay. The inhibitory effect was calculated by the following equation. [formula] The molar concentration which produced 50% inhibition (IC50) was calculated from the inhibition value obtained, and the results are shown below.

Assay [2] deals with T2, renin in human high renin plasma (Homo sapiens, UniProt P00797).
T2 construct: 500 μl of human high renin plasma; from tissue; host or cells: human high renin plasma
T2 sequence (P00797 67-406): T1 sequence (P00797 67-406)
Kind of assay: Renin inhibitory effect in a human high renin plasma. Particulars: pH 7.4, 30 minutes at 37° C., read-out: IC50 (molar concentration). It is filed as biochemical. How it is done:
Renin inhibitory effect in a human high renin plasma A mixture of 350 μl of a 0.5M phosphate buffer containing 14 mM EDTA 2Na and a 0.3% neomycin sulfate, which was adjusted to the pH of 7.4, 50 μl of a 20 mM an aqueous solution of […] as an angiotensin converting enzyme inhibitor and 100 μl of dimethyl sulfoxide solution containing an amino acid compound of the present invention was added to 500 μl of human high renin plasma. […] was incubated for 30 minutes at 37° C. in a water bath. A 200 μl sample was withdrawn from the incubated mixture, chilled immediately in an ice bath, and the amount of angiotensin I produced was determined by radioimmunoassay, and remaining of the mixture (200 μ[…] 4° C. in an ice bath. The amount of angiotensin I produced in the incubated mixture at 4° C. in an ice bath was determined by radioimmunoassay. As a control, the same procedure as above was carried out by using 100 μl of dimethyl sulfoxide alone in place of the 100 μl of dimethyl sulfoxide solution containing an amino acid compound of the present invention. The inhibitory effect was calculated by the following equation. [formula] The molar concentration which produced 50% inhibition (IC50) was calculated from the inhibition value obtained, and the results are shown below.

With `COC(=O)CC(Cc1cccc2ccccc12)C(=O)N[C@@H](Cc1c[nH]cn1)C(=O)N[C@@H](CC(C)C)C(O)C(=O)NCCC(C)C` (mixture of isomers) [(2RS,3S)-3-[3-Methoxycarbonyl-2-(1-naphthylmethyl)propionyl-L-histidyl]amino-2-hydroxy-5-methylhexanoylisoamylamide], the IC50 worked out at 220 nM in assay [1] and 690 nM in assay [2].
For `COC(=O)CN(C)C(=O)CC(Cc1cccc2ccccc12)C(=O)N[C@@H](Cc1c[nH]cn1)C(=O)N[C@@H](CC(C)C)C(O)C(=O)NCCC(C)C` (mixture of isomers) [(2RS,3S)-3-{N-[2-(1-Naphthylmethyl)-3-(N-methyl-N-methoxycarbonylmethylcarbamoyl)propionyl]-L-histidyl}amino-2-hydroxy-5-methylhexanoylisoamylamide], in that order: 23 nM and 339 nM.
In the same order, the values of `CC(C)C[C@H](NC(=O)[C@H](Cc1c[nH]cn1)NC(=O)C(CC(N)=O)Cc1cccc2ccccc12)C(O)C(=O)OC(C)C` (mixture of isomers) [Isopropyl (2RS,3S)-3-{N-[3-(carbamoyl)-2-(1-naphthylmethyl)propionyl]-L-histidyl}amino-2-hydroxy-5-methylhexanoate] are 520 nM and 490 nM.
Regarding `CC(C)C[C@H](NC(=O)[C@H](Cc1c[nH]cn1)NC(=O)C(CC(=O)OC(C)C)Cc1cccc2ccccc12)C(O)C(=O)OC(C)C` (mixture of isomers) [Isopropyl (2RS,3S)-3-{N-[3-(isopropoxycarbonyl)-2-(1-naphthylmethyl)propionyl]-L-histidyl}amino-2-hydroxy-5-methylhexanoate], the IC50 stood at 64 nM in assay [1] and 160 nM in assay [2].
As for `COC(=O)CNC(=O)CC(Cc1cccc2ccccc12)C(=O)N[C@@H](Cc1c[nH]cn1)C(=O)N[C@@H](CC(C)C)C(O)C(=O)OC(C)C` (mixture of isomers) [Isopropyl(2RS,3S)-3-{N-[2-(1-naphthylmethyl)-3-(N-methoxycarbonylmethylcarbamoyl)propionyl]-L-histidyl}amino-2-hydroxy-5-methylhexanoate], the IC50 was 240 nM in assay [1] and 76 nM in assay [2].
In the same order, the values of `CNC(=O)CNC(=O)CC(Cc1cccc2ccccc12)C(=O)N[C@@H](Cc1c[nH]cn1)C(=O)N[C@@H](CC(C)C)C(O)C(=O)OC(C)C` (mixture of isomers) [Isopropyl(2RS,3S)-3-{N-[2-(1-naphthylmethyl)-3-(N-methylcarbamoylmethylcarbamoyl)propionyl]-L-histidyl}amino-2-hydroxy-5-methylhexanoate] are 620 nM and 290 nM.
For `CC(C)C[C@H](NC(=O)[C@H](Cc1c[nH]cn1)NC(=O)C(CC(=O)N(C)CCO)Cc1cccc2ccccc12)C(O)C(=O)OC(C)C` (mixture of isomers) [Isopropyl(2RS,3S)-3-{N-{2-(1-naphthylmethyl)-3-[N-methyl-N-(2-hydroxyethyl)carbamoyl]propionyl}-L-histidyl}amino-2-hydroxy-5-methylhexanoate], in that order: 41 nM and 28 nM.
In the same order, the values of `COC(=O)CCN(C)C(=O)CC(Cc1cccc2ccccc12)C(=O)N[C@@H](Cc1c[nH]cn1)C(=O)N[C@@H](CC(C)C)C(O)C(=O)OC(C)C` (mixture of isomers) [Isopropyl(2RS,3S)-3-{N-{2-(1-naphthylmethyl)-3-[N-methyl-N-{2-methoxycarbonylethyl)carbamoyl]propionyl}-L-histidyl}amino-2-hydroxy-5-methylhexanoate] are 17 nM and 17 nM.
For the compound `CC(C)C[C@H](NC(=O)[C@H](Cc1c[nH]cn1)NC(=O)C(CC(=O)N(CCO)CCO)Cc1cccc2ccccc12)C(O)C(=O)OC(C)C` (mixture of isomers) [Isopropyl(2RS,3S)-3-{N-{2-(1-naphthylmethyl)-3-[bis(2-hydroxyethyl)carbamoyl]propionyl}-L-histidyl}amino-2-hydroxy-5-methylhexanoate], the IC50 in assay [1] turned out to be 89 nM; in assay [2] it was 180 nM.
For `COC(=O)CN(C)C(=O)CC(Cc1cccc2ccccc12)C(=O)N[C@@H](Cc1c[nH]cn1)C(=O)N[C@@H](CC(C)C)C(O)C(=O)OC` (mixture of isomers) [Methyl(2RS,3S)-3-{N-[2-(1-naphthylmethyl)-3-(N-methyl-N-methoxycarbonylmethylcarbamoyl)propionyl]-L-histidyl}amino-2-hydroxy-5-methylhexanoate], in that order: 12 nM and 14 nM.
As for `COC(=O)[C@@H]1CCCN1C(=O)CC(Cc1cccc2ccccc12)C(=O)N[C@@H](Cc1c[nH]cn1)C(=O)N[C@@H](CC(C)C)C(O)C(=O)NCCC(C)C` (stereo partly drawn) [(2RS,3S)-3-{N-[2-(1-Naphthylmethyl)-3-(2S-methoxycarbonylpyrrolidinocarbonyl)propionyl]-L-histidyl}amino-2-hydroxy-5-methylhexanoylisoamylamide], the values for the IC50 in assay [1] and in assay [2] were 84 nM and 290 nM, respectively.
For `CC(C)C[C@H](NC(=O)[C@H](Cc1c[nH]cn1)NC(=O)C(CC(=O)N1CCC[C@H]1CO)Cc1cccc2ccccc12)C(O)C(=O)OC(C)C` (stereo partly drawn) [Isopropyl(2RS,3S)-3-{N-[2-(1-naphthylmethyl)-3-(2S-hydroxymethylpyrrolidinocarbonyl)propionyl]-L-histidyl}amino-2-hydroxy-5-methylhexanoate], in that order: 23 nM and 140 nM.
For `COC(=O)[C@@H]1CC(O)CN1C(=O)CC(Cc1cccc2ccccc12)C(=O)N[C@@H](Cc1c[nH]cn1)C(=O)N[C@@H](CC(C)C)C(O)C(=O)OC(C)C` (stereo partly drawn) [Isopropyl(2RS,3S)-3-{N-[2-(1-naphthylmethyl)-3-(4-hydroxy-2S-methoxycarbonylpyrrolidinocarbonyl)-propionyl]-L-histidyl}amino-2-hydroxy-5-methylhexanoate], in that order: 41 nM and 190 nM.
In the same order, the values of `CC(C)C[C@H](NC(=O)[C@H](Cc1c[nH]cn1)NC(=O)C(CC(=O)N[C@@H](C)C(N)=O)Cc1cccc2ccccc12)C(O)C(=O)OC(C)C` (stereo partly drawn) [Isopropyl(2RS,3S)-3-{N-{2-(1-naphthylmethyl)-3-[N-(1S-carbamoylethyl)carbamoyl]propionyl}-L-histidyl}amino-2-hydroxy-5-methylhexanoate] are 440 nM and 240 nM.
With `COC(=O)[C@H](C)NC(=O)CC(Cc1cccc2ccccc12)C(=O)N[C@@H](Cc1c[nH]cn1)C(=O)N[C@@H](CC(C)C)C(O)C(=O)OC(C)C` (stereo partly drawn) [Isopropyl(2RS,3S)-3-{N-{2-(1-naphthylmethyl)-3-[N-(1S-methoxycarbonylethyl)carbamoyl]propionyl}-L-histidyl}amino-2-hydroxy-5-methylhexanoate], the IC50 in assay [1] amounted to 300 nM; in assay [2], 210 nM.
For `COC(=O)C[C@@H](C(=O)OC)N(C)C(=O)CC(Cc1cccc2ccccc12)C(=O)N[C@@H](Cc1c[nH]cn1)C(=O)N[C@@H](CC(C)C)C(O)C(=O)OC(C)C` (stereo partly drawn) [Isopropyl(2RS,3S)-3-{N-{2-(1-naphthylmethyl)-3-[N-methyl-N-(1S,2-bismethoxycarbonylethyl)carbamoyl]-propionyl}-L-histidyl}amino-2-hydroxy-5-methylhexanoate], in that order: 81 nM and 190 nM.
In the same order, the values of `COC(=O)[C@H](C)N(C)C(=O)CC(Cc1cccc2ccccc12)C(=O)N[C@@H](Cc1c[nH]cn1)C(=O)N[C@@H](CC(C)C)C(O)C(=O)OC(C)C` (stereo partly drawn) [Isopropyl(2RS,3S)-3-{N-{2-(1-naphthylmethyl)-3-[N-methyl-N-(1S-methoxycarbonylethyl)carbamoyl]propionyl}-L-histidyl}amino-2-hydroxy-5-methylhexanoate] are 33 nM and 16 nM.
